Data from ChEMBL document CHEMBL5291721, “A preclinical secondary pharmacology resource illuminates target-adverse drug reaction associations of marketed drugs” (Nat Commun, 2023).
“And” between values parts separate entries of the source, which are not always exact repeats. Identical values can stand only once.

How the values were obtained:
Adenosine receptor A2a = Adenosine receptor A2a (Homo sapiens, UniProt P29274)
[1] = target: T1, Alpha-2A adrenergic receptor (Homo sapiens, UniProt P08913); format: functional, cell-based
T1 sequence (P08913 whole entry): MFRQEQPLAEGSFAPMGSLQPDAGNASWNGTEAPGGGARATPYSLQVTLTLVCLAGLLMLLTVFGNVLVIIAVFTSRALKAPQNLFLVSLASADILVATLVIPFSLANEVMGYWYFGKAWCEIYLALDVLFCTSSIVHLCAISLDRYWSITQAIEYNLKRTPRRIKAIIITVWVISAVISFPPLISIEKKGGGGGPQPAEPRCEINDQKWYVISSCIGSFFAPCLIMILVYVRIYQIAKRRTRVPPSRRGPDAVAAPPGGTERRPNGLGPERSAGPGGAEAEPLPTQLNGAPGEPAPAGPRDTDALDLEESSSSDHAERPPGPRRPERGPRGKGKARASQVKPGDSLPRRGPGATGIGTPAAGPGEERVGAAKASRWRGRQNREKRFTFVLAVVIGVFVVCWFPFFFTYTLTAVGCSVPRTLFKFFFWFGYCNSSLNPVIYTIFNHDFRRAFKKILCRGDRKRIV

[2] = target: T2, Alpha-2C adrenergic receptor (Homo sapiens, UniProt P18825); format: functional
T2 sequence (P18825 whole entry): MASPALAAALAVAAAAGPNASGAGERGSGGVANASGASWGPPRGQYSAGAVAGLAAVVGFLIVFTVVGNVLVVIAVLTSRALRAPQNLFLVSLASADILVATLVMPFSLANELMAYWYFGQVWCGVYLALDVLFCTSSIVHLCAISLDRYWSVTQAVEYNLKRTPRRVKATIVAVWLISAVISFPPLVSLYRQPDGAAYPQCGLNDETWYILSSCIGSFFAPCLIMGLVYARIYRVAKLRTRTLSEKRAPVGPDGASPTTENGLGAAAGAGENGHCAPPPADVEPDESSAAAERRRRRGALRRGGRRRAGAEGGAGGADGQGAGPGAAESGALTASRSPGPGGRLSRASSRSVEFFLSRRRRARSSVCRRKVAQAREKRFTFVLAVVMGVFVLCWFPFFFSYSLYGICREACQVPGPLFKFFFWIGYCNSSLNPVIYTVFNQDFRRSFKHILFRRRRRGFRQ

Cannabinoid receptor 1 [3] = target: T3, Cannabinoid receptor 1 (Homo sapiens, UniProt P21554); format: functional, cell-based
Cannabinoid receptor 1 [4] = target: T3, Cannabinoid receptor 1; format: functional, cell-based; remark: listed apart in the source
D(1A) dopamine receptor = D(1A) dopamine receptor (Homo sapiens, UniProt P21728); format: functional, cell-based
Endothelin-1 receptor = target: T4, Endothelin-1 receptor (Homo sapiens, UniProt P25101)
T4 sequence (P25101 whole entry): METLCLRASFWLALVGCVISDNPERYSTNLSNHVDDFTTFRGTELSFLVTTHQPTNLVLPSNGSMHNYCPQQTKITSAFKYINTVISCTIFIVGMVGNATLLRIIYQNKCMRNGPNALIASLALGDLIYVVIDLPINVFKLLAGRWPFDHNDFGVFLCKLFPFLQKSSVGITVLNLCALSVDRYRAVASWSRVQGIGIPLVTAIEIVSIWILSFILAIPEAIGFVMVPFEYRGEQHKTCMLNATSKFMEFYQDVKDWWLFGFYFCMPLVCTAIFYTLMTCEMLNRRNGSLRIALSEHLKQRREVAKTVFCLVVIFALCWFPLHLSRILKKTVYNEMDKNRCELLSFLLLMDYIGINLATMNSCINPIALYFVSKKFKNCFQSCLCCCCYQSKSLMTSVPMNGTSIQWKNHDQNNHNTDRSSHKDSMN

[5] = target: T5, Gamma-aminobutyric acid receptor subunit alpha-1 (Rattus norvegicus, UniProt P62813)
[6] = target: T5, Gamma-aminobutyric acid receptor subunit alpha-1; format: functional
[7] = target: T6, 5-hydroxytryptamine receptor 1A (Homo sapiens, UniProt P08908); format: functional, cell-based
T6 sequence (P08908 whole entry): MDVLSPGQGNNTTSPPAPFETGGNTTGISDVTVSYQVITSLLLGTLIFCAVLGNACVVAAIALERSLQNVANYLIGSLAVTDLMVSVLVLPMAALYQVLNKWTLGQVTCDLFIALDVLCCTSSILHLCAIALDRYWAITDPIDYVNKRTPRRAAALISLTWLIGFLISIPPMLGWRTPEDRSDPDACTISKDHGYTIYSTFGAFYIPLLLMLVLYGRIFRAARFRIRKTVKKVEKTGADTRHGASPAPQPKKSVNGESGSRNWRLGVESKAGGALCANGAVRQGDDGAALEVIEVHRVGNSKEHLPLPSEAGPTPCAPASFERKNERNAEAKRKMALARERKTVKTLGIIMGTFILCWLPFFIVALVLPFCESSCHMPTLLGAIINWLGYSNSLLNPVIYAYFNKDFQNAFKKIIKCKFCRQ

[8] = target: T6, 5-hydroxytryptamine receptor 1A; format: functional, cell-based; remark: listed apart in the source
[9] = target: 5-hydroxytryptamine receptor 2A (Homo sapiens, UniProt P28223); format: functional, cell-based
[10] = target: Kappa-type opioid receptor (Homo sapiens, UniProt P41145)
Mu-type opioid receptor [11] = target: T7, Mu-type opioid receptor (Homo sapiens, UniProt P35372); test: biochemical; format: functional
[12] = target: T8, Sodium-dependent dopamine transporter (Homo sapiens, UniProt Q01959)
D(3) dopamine receptor = D(3) dopamine receptor (Homo sapiens, UniProt P35462)
Histamine H3 receptor [13] = target: T9, Histamine H3 receptor (Homo sapiens, UniProt Q9Y5N1)
Histamine H3 receptor [14] = target: T9, Histamine H3 receptor; remark: listed apart in the source
Mu-type opioid receptor [15] = target: T7, Mu-type opioid receptor
[16] = target: T8, Sodium-dependent dopamine transporter; remark: listed apart in the source
Note: assay procedure not described here.

Adenosine receptor A2a, sequence (P29274 whole entry): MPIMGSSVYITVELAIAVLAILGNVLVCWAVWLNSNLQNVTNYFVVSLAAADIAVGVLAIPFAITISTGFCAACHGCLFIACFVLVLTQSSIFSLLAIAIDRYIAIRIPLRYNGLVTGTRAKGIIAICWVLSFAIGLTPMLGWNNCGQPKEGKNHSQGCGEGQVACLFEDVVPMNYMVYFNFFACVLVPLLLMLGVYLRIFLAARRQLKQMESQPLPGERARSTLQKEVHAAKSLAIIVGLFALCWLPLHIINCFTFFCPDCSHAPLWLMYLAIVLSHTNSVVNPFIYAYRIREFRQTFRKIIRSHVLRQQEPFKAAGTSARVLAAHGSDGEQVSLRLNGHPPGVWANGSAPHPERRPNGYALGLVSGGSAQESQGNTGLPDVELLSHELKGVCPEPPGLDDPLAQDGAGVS
D(3) dopamine receptor, sequence (P35462 whole entry): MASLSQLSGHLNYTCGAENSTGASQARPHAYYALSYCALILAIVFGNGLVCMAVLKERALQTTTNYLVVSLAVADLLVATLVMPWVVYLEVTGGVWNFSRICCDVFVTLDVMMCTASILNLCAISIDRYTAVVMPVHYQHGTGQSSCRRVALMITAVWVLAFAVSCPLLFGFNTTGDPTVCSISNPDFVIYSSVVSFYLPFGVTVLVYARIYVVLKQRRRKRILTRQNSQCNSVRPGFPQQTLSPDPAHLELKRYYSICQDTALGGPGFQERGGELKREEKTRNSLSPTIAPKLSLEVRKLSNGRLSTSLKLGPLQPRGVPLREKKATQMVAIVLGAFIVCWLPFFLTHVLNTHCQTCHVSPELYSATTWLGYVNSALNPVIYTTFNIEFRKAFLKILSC
T8 sequence (Q01959 whole entry): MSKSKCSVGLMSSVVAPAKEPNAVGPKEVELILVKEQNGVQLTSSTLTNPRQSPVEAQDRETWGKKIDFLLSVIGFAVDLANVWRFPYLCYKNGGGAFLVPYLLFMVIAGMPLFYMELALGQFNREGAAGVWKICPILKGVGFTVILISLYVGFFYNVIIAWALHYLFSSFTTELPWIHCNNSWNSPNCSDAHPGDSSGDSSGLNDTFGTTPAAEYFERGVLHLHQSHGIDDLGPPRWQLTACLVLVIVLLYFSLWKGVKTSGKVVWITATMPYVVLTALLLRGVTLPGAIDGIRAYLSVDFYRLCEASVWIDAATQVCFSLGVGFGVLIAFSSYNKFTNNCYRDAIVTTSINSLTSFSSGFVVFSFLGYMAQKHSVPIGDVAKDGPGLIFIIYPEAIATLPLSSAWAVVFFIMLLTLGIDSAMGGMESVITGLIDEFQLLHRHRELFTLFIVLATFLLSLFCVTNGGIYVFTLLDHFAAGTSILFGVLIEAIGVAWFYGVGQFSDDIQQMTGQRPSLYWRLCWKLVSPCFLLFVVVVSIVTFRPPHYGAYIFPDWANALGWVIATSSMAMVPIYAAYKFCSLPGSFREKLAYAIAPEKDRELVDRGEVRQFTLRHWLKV
D(1A) dopamine receptor, sequence (P21728 whole entry): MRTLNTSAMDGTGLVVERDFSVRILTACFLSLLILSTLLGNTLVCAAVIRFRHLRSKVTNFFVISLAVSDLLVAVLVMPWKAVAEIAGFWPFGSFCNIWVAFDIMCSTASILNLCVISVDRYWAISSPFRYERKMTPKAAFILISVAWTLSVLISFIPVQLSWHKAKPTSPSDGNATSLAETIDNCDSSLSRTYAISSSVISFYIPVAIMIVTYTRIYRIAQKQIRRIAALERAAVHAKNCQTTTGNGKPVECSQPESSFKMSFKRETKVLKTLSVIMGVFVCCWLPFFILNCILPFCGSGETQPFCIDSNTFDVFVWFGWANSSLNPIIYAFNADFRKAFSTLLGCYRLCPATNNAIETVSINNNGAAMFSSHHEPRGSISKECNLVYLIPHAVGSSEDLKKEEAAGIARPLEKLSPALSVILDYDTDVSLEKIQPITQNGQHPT
5-hydroxytryptamine receptor 2A, sequence (P28223 whole entry): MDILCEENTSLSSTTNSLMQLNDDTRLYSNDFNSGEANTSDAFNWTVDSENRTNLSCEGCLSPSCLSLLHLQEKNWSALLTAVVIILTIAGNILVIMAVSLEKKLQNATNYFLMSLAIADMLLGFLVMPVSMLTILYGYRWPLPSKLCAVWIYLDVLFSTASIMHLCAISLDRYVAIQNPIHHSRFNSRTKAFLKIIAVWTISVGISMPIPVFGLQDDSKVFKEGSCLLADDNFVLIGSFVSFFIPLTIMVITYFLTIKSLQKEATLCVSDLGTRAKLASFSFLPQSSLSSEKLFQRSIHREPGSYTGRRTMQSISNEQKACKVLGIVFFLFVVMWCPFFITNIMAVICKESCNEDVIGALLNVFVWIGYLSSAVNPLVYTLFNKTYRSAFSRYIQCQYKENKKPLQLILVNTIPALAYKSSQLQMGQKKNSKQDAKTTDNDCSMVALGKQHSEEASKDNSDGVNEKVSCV
Kappa-type opioid receptor, sequence (P41145 whole entry): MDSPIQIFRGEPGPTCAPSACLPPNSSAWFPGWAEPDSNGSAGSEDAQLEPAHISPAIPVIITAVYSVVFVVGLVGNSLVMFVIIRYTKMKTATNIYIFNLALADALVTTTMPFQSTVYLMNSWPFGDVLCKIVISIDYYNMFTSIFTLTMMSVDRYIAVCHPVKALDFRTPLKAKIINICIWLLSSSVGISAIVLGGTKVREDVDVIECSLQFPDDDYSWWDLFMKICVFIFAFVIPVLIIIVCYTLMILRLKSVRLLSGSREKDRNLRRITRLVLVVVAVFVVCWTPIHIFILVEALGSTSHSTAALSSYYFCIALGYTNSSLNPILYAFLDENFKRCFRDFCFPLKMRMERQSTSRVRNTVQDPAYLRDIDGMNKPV
T9 sequence (Q9Y5N1 whole entry): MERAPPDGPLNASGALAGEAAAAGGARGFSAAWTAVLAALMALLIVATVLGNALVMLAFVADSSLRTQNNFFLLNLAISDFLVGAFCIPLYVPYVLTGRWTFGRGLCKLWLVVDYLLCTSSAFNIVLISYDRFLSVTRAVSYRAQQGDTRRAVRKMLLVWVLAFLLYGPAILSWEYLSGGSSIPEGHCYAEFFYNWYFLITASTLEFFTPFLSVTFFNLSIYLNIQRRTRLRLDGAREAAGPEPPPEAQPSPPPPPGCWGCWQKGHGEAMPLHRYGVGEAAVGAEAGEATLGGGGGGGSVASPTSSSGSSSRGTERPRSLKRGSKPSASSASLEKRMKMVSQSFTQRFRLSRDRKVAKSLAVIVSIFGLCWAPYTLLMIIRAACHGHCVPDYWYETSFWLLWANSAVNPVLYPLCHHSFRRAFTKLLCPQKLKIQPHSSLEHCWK
T3 sequence (P21554 whole entry): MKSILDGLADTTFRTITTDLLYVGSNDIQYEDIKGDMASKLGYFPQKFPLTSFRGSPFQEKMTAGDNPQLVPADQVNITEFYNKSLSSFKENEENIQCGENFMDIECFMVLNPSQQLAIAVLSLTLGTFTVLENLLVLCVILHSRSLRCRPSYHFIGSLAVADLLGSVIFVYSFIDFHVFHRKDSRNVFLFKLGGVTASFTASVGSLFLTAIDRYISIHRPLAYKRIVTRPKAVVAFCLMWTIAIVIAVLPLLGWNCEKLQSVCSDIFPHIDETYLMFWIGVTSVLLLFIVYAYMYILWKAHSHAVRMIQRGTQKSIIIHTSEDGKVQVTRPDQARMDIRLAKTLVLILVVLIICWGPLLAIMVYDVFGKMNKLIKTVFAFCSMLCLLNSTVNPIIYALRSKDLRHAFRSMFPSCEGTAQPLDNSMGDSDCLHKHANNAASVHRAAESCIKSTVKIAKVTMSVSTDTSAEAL
T7 sequence (P35372 whole entry): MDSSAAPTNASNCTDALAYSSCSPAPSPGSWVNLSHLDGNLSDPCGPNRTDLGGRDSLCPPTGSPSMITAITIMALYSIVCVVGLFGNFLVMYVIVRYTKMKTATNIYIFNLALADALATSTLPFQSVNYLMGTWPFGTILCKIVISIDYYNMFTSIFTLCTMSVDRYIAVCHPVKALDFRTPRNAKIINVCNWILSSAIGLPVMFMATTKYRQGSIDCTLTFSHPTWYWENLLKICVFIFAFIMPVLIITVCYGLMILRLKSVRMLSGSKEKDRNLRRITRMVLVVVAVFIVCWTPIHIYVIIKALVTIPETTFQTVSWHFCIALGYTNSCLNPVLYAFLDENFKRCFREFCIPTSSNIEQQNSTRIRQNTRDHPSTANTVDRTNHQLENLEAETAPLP
T5 sequence (P62813 whole entry): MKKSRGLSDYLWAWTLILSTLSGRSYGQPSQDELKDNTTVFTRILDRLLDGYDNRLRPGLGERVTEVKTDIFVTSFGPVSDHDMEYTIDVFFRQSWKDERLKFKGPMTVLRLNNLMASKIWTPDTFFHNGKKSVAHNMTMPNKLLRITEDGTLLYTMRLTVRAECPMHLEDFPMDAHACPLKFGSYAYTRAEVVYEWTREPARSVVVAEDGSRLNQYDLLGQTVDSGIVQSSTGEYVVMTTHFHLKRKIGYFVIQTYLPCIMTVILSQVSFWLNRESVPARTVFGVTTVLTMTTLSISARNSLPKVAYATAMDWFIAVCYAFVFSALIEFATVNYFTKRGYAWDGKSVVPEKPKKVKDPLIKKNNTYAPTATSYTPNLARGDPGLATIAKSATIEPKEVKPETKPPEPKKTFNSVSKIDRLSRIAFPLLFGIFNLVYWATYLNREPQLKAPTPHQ

| AC50 (Adenosine receptor A2a) [µM] | AC50 [1] [µM] | AC50 [2] [µM] | AC50 (Cannabinoid receptor 1 [3]) [µM] | AC50 (Cannabinoid receptor 1 [4]) [µM] | AC50 (D(1A) dopamine receptor) [µM] | AC50 (Endothelin-1 receptor) [µM] | AC50 [5] [µM] | AC50 [6] [µM] | AC50 [7] [µM] | AC50 [9] [µM] | AC50 [10] [µM] | AC50 (Mu-type opioid receptor [11]) [µM] | AC50 [12] [µM] | AC50 (D(3) dopamine receptor) [µM] | AC50 (Histamine H3 receptor [13]) | SMILES | AC50 [8] [µM] | AC50 (Histamine H3 receptor [14]) [µM] | AC50 (Mu-type opioid receptor [15]) [µM] | AC50 [16] [µM] |
| --- | --- | --- | --- | --- | --- | --- | --- | --- | --- | --- | --- | --- | --- | --- | --- | --- | --- | --- | --- | --- |
| > 30 | > 10 | > 10 | – | – | > 10 | > 30 | > 10 | > 10 | > 10 | > 30 | > 10 | > 30 | > 10 | > 30 | > 10 µM | CC(C)NCC(O)COc1ccc(COCCOC(C)C)cc1 (centres undefined) [BISOPROLOL] | > 10 | – | – | – |
| > 30 | > 30 | > 30 | > 30 | > 30 | > 30 | > 30 | – | > 30 | > 30 | > 30 | > 30 | > 30 | > 30 | > 30 | > 30 µM | N[C@@H](C(=O)N[C@@H]1C(=O)N2C(C(=O)O)=C(Cl)CS[C@H]12)c1ccccc1 [CEFACLOR ANHYDROUS] | – | – | – | – |
| > 30 | > 30 | > 30 | > 30 | > 30 | > 30 | > 30 | > 30 | > 30 | > 30 | > 30 | > 30 | > 30 | > 30 | > 30 | > 30 µM | CCCS(=O)(=O)Nc1ccc(F)c(C(=O)c2c[nH]c3ncc(-c4ccc(Cl)cc4)cc23)c1F [VEMURAFENIB] | – | – | – | – |
| > 30 | > 30 | > 30 | > 30 | > 30 | > 30 | > 30 | > 10 | > 30 | > 30 | > 30 | > 30 | > 30 | > 30 | > 30 | > 30 µM | O=C(CCCCCCC(=O)Nc1ccccc1)NO [VORINOSTAT] | > 30 | – | – | – |

More lines, now with the values behind:

| SMILES | AC50 (Adenosine receptor A2a) [µM] | AC50 [1] [µM] | AC50 [2] [µM] | AC50 (Cannabinoid receptor 1 [3]) [µM] | AC50 (Cannabinoid receptor 1 [4]) [µM] | AC50 (D(1A) dopamine receptor) [µM] | AC50 (Endothelin-1 receptor) [µM] | AC50 [5] [µM] | AC50 [6] [µM] | AC50 [7] [µM] | AC50 [9] [µM] | AC50 [10] [µM] | AC50 (Mu-type opioid receptor [11]) [µM] | AC50 [12] [µM] | AC50 (D(3) dopamine receptor) [µM] | AC50 (Histamine H3 receptor [13]) | AC50 [8] [µM] | AC50 (Histamine H3 receptor [14]) [µM] | AC50 (Mu-type opioid receptor [15]) [µM] | AC50 [16] [µM] |
| --- | --- | --- | --- | --- | --- | --- | --- | --- | --- | --- | --- | --- | --- | --- | --- | --- | --- | --- | --- | --- |
| CO/N=C(\C(=O)N[C@@H]1C(=O)N2C(C(=O)[O-])=C(C[N+]3(C)CCCC3)CS[C@H]12)c1csc(N)n1 | > 300 | > 300 | > 300 | > 300 | > 300 | > 300 | > 300 | > 30 | > 300 | > 300 | > 30 | > 30 | > 30 | > 300 | > 300 | > 30 µM and 97 µM | > 300 | – | – | – |
| CN(CCOc1ccc(NS(C)(=O)=O)cc1)CCc1ccc(NS(C)(=O)=O)cc1 [DOFETILIDE] | > 30 | > 30 | > 10 | > 30 | > 30 | > 10 | > 30 | > 10 | > 10 | > 30 | > 30 | > 10 | > 30 | > 10 | 0.78 | > 10 µM | > 10 | > 30 | > 30 | > 30 |
| COc1ccc2c(c1)C(=O)N(CCc1ccc(S(=O)(=O)NC(=O)NC3CCCCC3)cc1)C(=O)C2(C)C [GLIQUIDONE] | > 30 | > 30 | > 30 | – | – | > 30 | > 30 | > 30 | > 30 | > 30 | 13 | > 30 | > 30 | > 30 | > 30 | > 30 µM | – | – | – | – |
| NC(=O)c1ncn([C@@H]2O[C@H](CO)[C@@H](O)[C@H]2O)c1O [MIZORIBINE] | > 30 | > 30 | > 30 | > 30 | > 30 | > 30 | > 30 | – | > 10 | > 30 | > 30 | > 30 | > 30 | > 30 | > 30 | > 30 µM | > 30 | – | – | – |
| OCCN1CCN(CCCN2c3ccccc3C=Cc3ccccc32)CC1 [OPIPRAMOL] | > 30 | > 30 | 6.7 | > 30 | > 30 | > 30 | > 30 | – | > 30 | > 30 | 28 | > 30 | 15 | > 30 | 1.32 | > 30 µM | > 30 | 19 | 19.4 | 10.9 |
